Where two headings read alike, the source gives them in different places. Some results are limits rather than exact numbers.

One may read the IC50 as the concentration that gives 50% inhibition.

One test has as its target T1, EHMT2 (Homo sapiens, UniProt Q96KQ7).
T1 construct: host or cells: MDA-MB-231
T1 sequence (Q96KQ7 1-1210): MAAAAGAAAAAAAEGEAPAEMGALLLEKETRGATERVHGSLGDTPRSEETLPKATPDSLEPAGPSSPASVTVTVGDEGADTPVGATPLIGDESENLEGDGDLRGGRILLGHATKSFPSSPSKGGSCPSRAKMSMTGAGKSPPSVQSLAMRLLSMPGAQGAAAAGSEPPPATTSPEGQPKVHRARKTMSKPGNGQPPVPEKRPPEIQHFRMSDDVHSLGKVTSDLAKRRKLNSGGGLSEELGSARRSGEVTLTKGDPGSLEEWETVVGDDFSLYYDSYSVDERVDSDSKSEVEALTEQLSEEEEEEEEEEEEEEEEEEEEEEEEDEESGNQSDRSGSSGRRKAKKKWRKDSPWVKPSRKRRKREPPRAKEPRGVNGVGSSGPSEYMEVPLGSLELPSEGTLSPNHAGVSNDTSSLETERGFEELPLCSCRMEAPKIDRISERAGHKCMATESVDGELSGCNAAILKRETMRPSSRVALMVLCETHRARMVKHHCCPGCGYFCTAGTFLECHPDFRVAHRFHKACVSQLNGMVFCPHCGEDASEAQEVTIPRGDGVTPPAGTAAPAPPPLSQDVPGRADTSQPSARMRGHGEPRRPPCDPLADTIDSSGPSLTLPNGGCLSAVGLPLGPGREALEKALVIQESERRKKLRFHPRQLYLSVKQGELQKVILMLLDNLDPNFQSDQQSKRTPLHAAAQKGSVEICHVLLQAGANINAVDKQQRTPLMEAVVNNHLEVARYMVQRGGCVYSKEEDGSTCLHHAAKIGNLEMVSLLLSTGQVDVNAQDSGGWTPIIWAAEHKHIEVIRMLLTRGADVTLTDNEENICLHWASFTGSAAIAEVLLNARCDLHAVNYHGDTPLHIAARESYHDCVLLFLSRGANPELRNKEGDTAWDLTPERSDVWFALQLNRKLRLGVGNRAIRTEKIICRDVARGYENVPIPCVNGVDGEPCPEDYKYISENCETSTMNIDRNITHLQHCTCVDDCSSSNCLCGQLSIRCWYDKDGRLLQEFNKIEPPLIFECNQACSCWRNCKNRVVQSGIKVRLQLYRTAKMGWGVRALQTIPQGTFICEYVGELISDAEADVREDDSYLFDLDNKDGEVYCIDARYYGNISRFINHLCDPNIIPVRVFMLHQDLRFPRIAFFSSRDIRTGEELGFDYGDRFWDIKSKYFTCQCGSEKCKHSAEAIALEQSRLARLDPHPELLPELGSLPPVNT
In words: MDA-MB-231 H3K9me2 in-cell Western assay (EHMT2 ICW). The conditions noted are these: Table III; MDA-MB-231 H3K9me2 in-cell Western; read-out: EHMT2 ICW (IC50 μM). The test is classed as cell-based. From the text:
RPMI/Glutamax medium, Penicillin-Streptomycin, Heat Inactivated Fetal Bovine Serum, and D-PBS were purchased from Life Technologies (Grand Island, N.Y., USA). Odyssey blocking buffer, 800CW goat anti-mouse IgG (H+L) antibody, and Licor Odyssey Infrared Scanner were purchased from Licor Biosciences, Lincoln, Nebr., USA. […] 16% Paraformaldehyde was purchased from Electron Microscopy Sciences, Hatfield, Pa., USA).MDA-MB-231 cells were maintained in complete growth medium (RPMI supplemented with 10% v/v heat inactivated fetal bovine serum) and cultured at 37° C. under 5% CO2. UNC0638 was purchased from Sigma-Aldrich (St. Louis, Mo., USA).
Compound (100 nL) was added directly to 384-well cell plate. MDA-MB-231 cells (ATCC) were seeded in assay medium (RPMI/Glutamax supplemented with 10% v/v heat inactivated fetal bovine serum and 1% Penicillin/Streptomycin, Life Technologies) at a concentration of 3,000 cells per well to a Poly-D-Lysine coated 384-well cell culture plate with 50 μL per well. […] Plates were incubated at room temperature for 30 minutes and then incubated at 37° C., 5% CO2 for additional 48 hours. After the incubation, 50 μL per well of 8% paraformaldehyde (Electron Microscopy Sciences) in PBS was added to the plates and incubated at room temperature for 20 minutes. […] Next, 60 μL per well of Odyssey blocking buffer (Licor Biosciences) was added to each plate and incubated for 1 hour at room temperature. Blocking buffer was removed and 20 μL of monoclonal primary antibody α-H3K9me2 (Abcam) diluted 1:800 in Odyssey buffer with 0.1% Tween 20 (v/v) were added and plates were incubated overnight (16 hours) at 4° C. Plates were washed 5 times with 100 μL per well of wash buffer. Next 20 μL per well of secondary antibody was added (1:500 800CW donkey anti-mouse IgG (H+L) antibody (Licor Biosciences), 1:1000 DRAQ5 (Cell Signaling Technology) in Odyssey buffer with 0.1% Tween 20 (v/v)) and incubated for 1 hour at room temperature. The plates were washed 5 times with 100 μL per well wash buffer then 2 times with 100 μL per well of water. Plates were allowed to dry at room temperature then imaged on a Licor Odyssey Infrared Scanner (Licor Biosciences) which measured integrated intensity at 700 nm and 800 nm wavelengths. Both 700 and 800 channels were scanned.
First, the ratio for each well was determined by:
The average of the ratio values for each well was calculated and used to determine the percent inhibition for each test well in the plate. Control compound was serially diluted three-fold in DMSO for a total of 10 test concentrations beginning at 1 μM. Percent inhibition was calculated as: […]
IC50 curves were generated using triplicate wells per concentration of compound. […] IC50 values were calculated using a non-linear regression (variable slope-four parameter fit model) with by the following formula: […]

The target of the next test is T2, human EHMT2 913-1193 (Homo sapiens, UniProt Q96KQ7).
T2 construct: recombinant purified human EHMT2 913-1193, Viva; purchased Viva
T2 sequence (Q96KQ7 913-1193): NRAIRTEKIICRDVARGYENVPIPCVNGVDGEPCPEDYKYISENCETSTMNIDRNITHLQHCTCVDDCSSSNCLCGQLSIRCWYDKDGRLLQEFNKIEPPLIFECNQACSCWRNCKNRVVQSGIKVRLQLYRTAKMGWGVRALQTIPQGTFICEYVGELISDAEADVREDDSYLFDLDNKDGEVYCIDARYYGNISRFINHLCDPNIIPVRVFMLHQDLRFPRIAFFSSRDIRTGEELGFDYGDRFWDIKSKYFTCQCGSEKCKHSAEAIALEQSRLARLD
Kind of test: EHMT2 enzyme assay on histone peptide substrate (EHMT2 PEP). The test is classed as biochemical. The conditions noted are these: read-out: EHMT2 PEP (IC50 μM). The procedure: Recombinant purified human EHMT2 913-1193 (55 μM) synthesized by Viva was used for all experiments. Biotinylated histone peptides were synthesized by Biopeptide and HPLC-purified to >95% purity. Streptavidin Flashplates and seals were purchased from PerkinElmer and 384 Well V-bottom Polypropylene Plates were from Greiner. ^3H-labeled S-adenosylmethionine (^3H-SAM) was obtained from American Radiolabeled Chemicals with a specific activity of 80 Ci/mmol. Unlabeled SAM and S-adenosylhomocysteine (SAH) were obtained from American Radiolabeled Chemicals and Sigma-Aldrich respectively. Flashplates were washed in a Biotek ELx-405 with 0.1% Tween. 384-well Flashplates and 96-well filter binding plates were read on a TopCount microplate reader (PerkinElmer). Compound serial dilutions were performed on a Freedom EVO (Tecan) and spotted into assay plates using a Thermo Scientific Matrix PlateMate (Thermo Scientific). Reagent cocktails were added by Multidrop Combi (Thermo Scientific).
General Procedure for EHMT2 Enzyme Assay on Histone Peptide Substrate.
10-point curves of test compounds were made on a Freedom EVO (Tecan) using serial 3-fold dilutions in DMSO, beginning at 2.5 mM (final top concentration of compound was 50 μM and the DMSO was 2%). A 1 μL aliquot of the inhibitor dilution series was spotted in a polypropylene 384-well V-bottom plate (Greiner) using a Thermo Scientific Matrix PlateMate (Thermo Scientific). […] Compounds were incubated for 30 minutes with 40 μL per well of 0.031 nM EHMT2 (recombinant purified human EHMT2 913-1193, Viva) in 1× assay buffer (20 mM Bicine [pH 7.5], 0.002% Tween 20, 0.005% Bovine Skin Gelatin and 1 mM TCEP). […] Reactions were incubated for 60 minutes at room temperature and quenched with 10 μL per well of 400 μM unlabeled SAM, then transferred to a 384-well streptavidin Flashplate (PerkinElmer) and washed in a Biotek ELx-405 well washer with 0.1% Tween after 60 minutes. 384-well Flashplates were read on a TopCount microplate reader (PerkinElmer).

For the next test, the target named is T3, EHMT1 (Homo sapiens, UniProt Q9H9B1).
T3 sequence (Q9H9B1 1-1298): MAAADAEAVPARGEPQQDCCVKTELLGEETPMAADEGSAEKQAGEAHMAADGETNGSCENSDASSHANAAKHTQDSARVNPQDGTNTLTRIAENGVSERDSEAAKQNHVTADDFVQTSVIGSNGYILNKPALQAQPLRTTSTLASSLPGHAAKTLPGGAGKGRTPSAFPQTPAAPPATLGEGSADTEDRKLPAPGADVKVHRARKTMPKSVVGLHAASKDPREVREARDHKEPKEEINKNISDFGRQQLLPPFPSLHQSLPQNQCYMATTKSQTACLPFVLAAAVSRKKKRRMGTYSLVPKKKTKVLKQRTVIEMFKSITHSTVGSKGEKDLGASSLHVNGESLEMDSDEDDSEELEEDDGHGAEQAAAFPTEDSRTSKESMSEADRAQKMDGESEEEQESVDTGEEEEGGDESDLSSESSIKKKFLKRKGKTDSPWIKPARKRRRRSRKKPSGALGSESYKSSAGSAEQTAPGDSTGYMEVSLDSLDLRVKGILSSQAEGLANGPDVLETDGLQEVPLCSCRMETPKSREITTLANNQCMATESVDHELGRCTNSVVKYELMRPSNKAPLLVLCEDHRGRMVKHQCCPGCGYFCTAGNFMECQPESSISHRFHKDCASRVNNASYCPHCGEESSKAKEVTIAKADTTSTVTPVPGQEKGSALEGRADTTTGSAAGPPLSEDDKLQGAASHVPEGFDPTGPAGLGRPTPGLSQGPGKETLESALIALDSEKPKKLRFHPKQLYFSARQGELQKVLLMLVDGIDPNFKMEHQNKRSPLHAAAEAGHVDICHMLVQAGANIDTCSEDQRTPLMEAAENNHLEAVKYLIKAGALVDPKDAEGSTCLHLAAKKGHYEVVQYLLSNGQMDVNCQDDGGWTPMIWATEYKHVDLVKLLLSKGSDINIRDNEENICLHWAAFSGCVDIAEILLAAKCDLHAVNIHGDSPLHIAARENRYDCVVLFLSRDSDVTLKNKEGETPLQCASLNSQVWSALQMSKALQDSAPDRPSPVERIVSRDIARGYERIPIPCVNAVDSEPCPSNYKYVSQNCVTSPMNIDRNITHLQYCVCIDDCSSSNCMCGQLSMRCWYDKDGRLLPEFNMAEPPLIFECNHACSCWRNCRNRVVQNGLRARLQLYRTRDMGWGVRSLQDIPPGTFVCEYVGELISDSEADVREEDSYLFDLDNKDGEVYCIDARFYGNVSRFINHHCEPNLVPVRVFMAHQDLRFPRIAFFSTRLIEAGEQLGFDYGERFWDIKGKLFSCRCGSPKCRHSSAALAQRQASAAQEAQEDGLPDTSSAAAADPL
In words: EHMT1 enzyme assay on peptide substrate (EHMT1 PEP). The test is classed as biochemical. The conditions noted are these: read-out: EHMT1 PEP (IC50 μM).

Consider `CNc1ccnc(Nc2ccc(OC)c(OCCCN3CCC3)c2)n1` [Compound 281], for which the IC50 at EHMT2 is 0.1 to 1 µM; on human EHMT2 913-1193 (Table III), under 0.1 µM.

Consider `CNc1ccnc(Nc2ccc(OC)c(OCCCN3CCCC3)c2)n1` [Compound 399], for which the IC50 at EHMT2 was in the range of 0.1 to 1 µM.

For the molecule `COc1ccc(Nc2nccc(NCC3COC3)n2)cc1OCCCN1CCCC1` [Compound 256, N^2-(4-methoxy-3-(3-(pyrrolidin-1-yl)propoxy)phenyl)-N^4-(oxetan-3-ylmethyl)pyrimidine-2,4-diamine], the IC50 on EHMT1 (Table III) and on human EHMT2 913-1193 (Table III) was over 10 µM throughout.

As for `COc1ccc(Nc2cccc(NCC3CCNCC3)n2)cc1OCCCN1CCCC1` [Compound 113], the IC50 on EHMT1 (Table II) and at human EHMT2 913-1193 (Table II) was 1 to 10 µM each time.

`COc1ccc(Nc2nccc(N3CCCCC3)n2)cc1OCCCN1CCCC1` [Compound 125]: the IC50 at EHMT1 (Table II) and on human EHMT2 913-1193 (Table II) was 1 to 10 µM each time.

`CCCCNc1nccc(NCC2CCC(NC(C)=O)CC2)n1` (centres unmarked) [Compound 69]: the IC50 at EHMT1 (Table II) and on human EHMT2 913-1193 (Table II) was over 10 µM throughout.

As for `CNc1nc(Nc2ccc(OC)c(OCCCN3CCCC3)c2)ncc1Cl` [Compound 211], the IC50 on EHMT1 (Table II) and at human EHMT2 913-1193 (Table II) was 1 to 10 µM each time.

As for `CNc1ccnc(Nc2ccc(OC(F)(F)F)c(OCCCN3CCCC3)c2)n1` [Compound 315, N^4-methyl-N^2-(3-(3-(pyrrolidin-1-yl)propoxy)-4-(trifluoromethoxy)phenyl)pyrimidine-2,4-diamine], the IC50 at EHMT1 (Table III) and at human EHMT2 913-1193 (Table III) was 1 to 10 µM throughout.

Turning to `O=C(NCCNc1ccnc(NCC2CCNCC2)n1)c1cccc(N2CCCC2)c1` [Compound 100], the IC50 at EHMT1 (Table II) and on human EHMT2 913-1193 (Table II) was over 10 µM each time.
